Reference: US20150296765A1, “DEVICE FOR SPRAYING POWDERY CHEMICAL AGENT AND PROCESS FOR SPRAYING POWDERY CHEMICAL AGENT” (EARTH CHEMICAL CO., LTD., priority 2012, published 2015)
Like-named read-outs stand apart in the source and are kept apart here.

How the values were obtained:
[1] = system: Smoky-brown cockroaches; conditions: for insect pest-controlling effect (in words): summary of Tables 5 and 6
Source text: (§1) Contents of the test are as follows.
(§2) 1. A test plot having a floor area of about 9 m^2 (270 cm in length×340 cm in width×15 cm in height) as shown in FIG. 5 was set in the interior of a room of 470 cm in length×540 cm in width. The powdery chemical agent spraying device 1 in which the cylindrical body 23 is connected directly with a pump P is placed in the center of a test plot floor face 100; corrugated boxes (A), (B), and (C) each imitating a gap between a kitchen sink and a refrigerator are arranged near one side of the test plot floor face 100 (lower portion in FIG. 5); and a bait 101 and water 103 are arranged near the other side of the test plot floor face 100 (upper portion in FIG. 5). 2. Smoky-brown cockroaches are released on the test plot floor face 100 and habituated in the corrugated boxes (A), (B), and (C), and thereafter, the powdery chemical agent 30 is sprayed from the powdery chemical agent spraying device 1 in which a discharge port of the pump P set up at a pressure of 100 kPa is connected directly with the cylindrical body 23. (Number of test insects: 49 females and 48 males for dinotefura and 50 females and 49 males for d.d-T-cyphenothrin) 3. […] 4. A knockdown (KD) rate and a mortality rate at every passage of a time based on the count number are calculated.
Device in which the discharge port of the pump (rolling pump, manufactured by Okenseiko Co., Ltd.; two pumps of Model Nos. P30C02R8516 and M42C02R8516 coupled with each other) P is connected directly with the cylindrical body 23 (In order to confirm a breaking pressure of each of the sealing films 25 and 27, a pressure gauge G is placed therebetween.)
Cylindrical body 23: The same as the cylindrical body 23 used in the measuring test of falling amount of chemical agent on floor face of Example 1.
Sealing films 25 and 27: The same as the sealing films 25 and 27 used in the measuring test of falling amount of chemical agent on floor face of Example 1.
(§3) Corrugated boxes (A) and (B): Two holes (2 cm×2 cm) through which the cockroach can come and go are opened in front of a corrugated box of 50 cm in length×50 cm in width×25 cm in height.
(§4) Corrugated box (C): The front and the rear of a corrugated box of 50 cm in length×50 cm in width×3 cm in height are fully opened.

[2] = system: Smoky-brown cockroaches
Source text: as §1
as §2, with “FIG. 4” for “FIG. 5”, “1” for “1 in which the cylindrical body 23 is connected directly with a pump P”, “FIG. 4);” for “FIG. 5);”, “FIG. 4).” for “FIG. 5).”, “2. 28 females and 29 males of smoky-brown” for “2. Smoky-brown”, “device 1. […]” for “device 1 in which a discharge port of the pump P set up at a pressure of 100 kPa is connected directly with the cylindrical body 23. (Number of test insects: 49 females and 48 males for dinotefura and 50 females and 49 males for d.d-T-cyphenothrin)”
Container body 11: PET bottle having a capacity of 280 mL
Cylindrical body 23: Acrylic pipe having an inside diameter of 7 mm and a length of 50 mm
Sealing film 25: Parafilm (trade name: […] M, 4 inch×125 feet)
Sealing film 27: Parafilm (trade name: […] M, 4 inch×125 feet)
The Parafilm was wound around each end part of the cylindrical body 23 to prepare the sealing films 25 and 27, respectively.
The Parafilm was wound without being stretched and adjusted such that a pressure at the time of breaking of each of the sealing films 25 and 27 was 100 kPa.
Sodium bicarbonate 41: 3.8 g
as §3, §4

`CN/C(=N/CC1CCOC1)N[N+](=O)[O-]` (stereo not drawn) [Chemical agent B, dinotefuran] showed a KD and mortality ([1]; passage of time 2 hr) of 3%, a KD ([1]; passage of time 14.5 hr) of 43% and a KD and mortality ([1]; passage of time 14.5 hr) of 59%. The KD and mortality ([1]; passage of time 16 hr) was 71%, the KD and mortality ([1]; passage of time 23 hr) was 82% and the KD ([1]; passage of time 43 hr) was 18%. It also gave a KD and mortality ([1]; passage of time 43 hr) of 96%, a KD ([1]; passage of time 48 hr) of 15% and a KD and mortality ([1]; passage of time 48 hr) of 96%. For the same molecule, the KD and mortality ([1]; passage of time […]) was 2%, the “insect pest-controlling effect (in words)” value [1] was “a high effectiveness is obtained” and the KD and mortality ([2]; passage of time 3 hr) was 2%. For the same molecule, the KD and mortality ([2]; passage of time 6 hr) was 9%, the KD ([2]; passage of time 18 hr) was 25% and the KD and mortality ([2]; passage of time 18 hr) was 40%. The KD and mortality ([2]; passage of time 24 hr) was 88%, the KD ([2]; passage of time 32 hr) was 9% and the KD and mortality ([2]; passage of time 32 hr) was 95%. For the same molecule, the KD ([2]; passage of time 48 hr) was 7% and the KD and mortality ([2]; passage of time 48 hr) was 96%.

`CC(C)=CC1C(C(=O)OC(C#N)c2cccc(Oc3ccccc3)c2)C1(C)C` (stereo not drawn) [d.d-T-cyphenothrin] was tested, and the “insect pest-controlling effect (in words)” value [1] was “a high insect pest-exterminating effect could be obtained”.
